Article PMC12157126, “Saturation kinetics and specificity of transporters for L-arginine and asymmetric dimethylarginine (ADMA) at the blood-brain and blood-CSF barriers” (PLOS One, 2025)

How the values were obtained:
[1] = system: blood-brain and blood-CSF barriers; assay: In situ brain/choroid plexus perfusion with capillary depletion: CNS uptake of [3H]-arginine in absence and presence of transporter inhibitors; assay type: in vivo, adult male BALB/c mice; conditions: for effect on [3H]-arginine distribution / effect on [3H]-arginine uptake: 4 mM BCH or 500 μM α-methyl-D,L-tryptophan; for effect on [3H]-arginine uptake: majority of brain regions sampled
Procedure: (§1) The in situ brain/choroid plexus perfusion method was performed as previously described and will only be briefly detailed here. […] At the end of the perfusion period a CSF sample was taken from the cisterna magna, the animal was decapitated, the brain removed and samples taken under a Leica S4E L2 stereomicroscope (Leica; Buckinghamshire, UK). […] The circumventricular organs (CVOs) including the choroid plexus, pituitary gland and pineal gland were also sampled. Brain samples were also taken for capillary depletion analysis.
(§2) Both the physiological capillary depletion buffer and dextran solution were maintained at 4 °C to halt any cell metabolism and transport processes, and to reduce any cellular or protein damage due to heat generated from the homogenisation process. The whole brain homogenate was then taken for dextran density centrifugation (5,400 x g) and 4 °C to produce an endothelial cell-enriched pellet and supernatant containing brain parenchyma.
(§3) The transporter proteins these inhibitors target are listed in S1 Table in S1 File.
(§4) % change=RTissue−RInhibition /RTissue× 100 (2)

[2] = system: blood-brain and blood-CSF barriers; assay: In situ brain/choroid plexus perfusion with capillary depletion: CNS uptake of [3H]-ADMA in absence and presence of transporter inhibitors; conditions: for RBrain of [3H]-ADMA in presence of inhibitor: 10 min, sucrose corrected; for RBrain of [3H]-ADMA in presence of inhibitor / % inhibition of [3H]-ADMA uptake: L-homoarginine 20 mM; for effect on [3H]-ADMA uptake: brain homogenate or supernatant
Procedure: as §1, §2, §3, §4

[3] = caudate nucleus, BCH 4 mM, α-methyl-D,L-tryptophan 500 μM, L-phenylalanine 200 μM, L-leucine 5 mM, harmaline 2 mM
[4] = choroid plexus, BCH 4 mM, L-phenylalanine 200 μM, L-leucine 5 mM, harmaline 2 mM
[5] = frontal cortex, BCH 4 mM, α-methyl-D,L-tryptophan 500 μM, L-phenylalanine 200 μM, L-leucine 5 mM, harmaline 2 mM
[6] = hippocampus, BCH 4 mM, α-methyl-D,L-tryptophan 500 μM, L-phenylalanine 200 μM, L-leucine 5 mM, harmaline 2 mM
[7] = hypothalamus, BCH 4 mM, α-methyl-D,L-tryptophan 500 μM, L-phenylalanine 200 μM, L-leucine 5 mM, harmaline 2 mM
[8] = occipital cortex, BCH 4 mM, α-methyl-D,L-tryptophan 500 μM, L-phenylalanine 200 μM, L-leucine 5 mM, harmaline 2 mM
[9] = pineal gland, BCH 4 mM, α-methyl-D,L-tryptophan 500 μM, L-phenylalanine 200 μM, L-leucine 5 mM, harmaline 2 mM
[10] = pituitary gland, BCH 4 mM, L-phenylalanine 200 μM, L-leucine 5 mM, harmaline 2 mM
[11] = thalamus, BCH 4 mM, α-methyl-D,L-tryptophan 500 μM, L-phenylalanine 200 μM, L-leucine 5 mM, harmaline 2 mM
[12] = CSF, choroid plexus and pituitary gland
[13] = homogenate, supernatant, pellet
[14] = brain and choroid plexus (up to), system B0,+ inhibitors

## NC(N)=NCCCC[C@H](N)C(=O)O [L-homoarginine, reference compound]
[1]; 20 mM L-homoarginine, all brain regions (up to), 10 min
  inhibition of [3H]-arginine uptake: up to 99.7%
[1]; 20 mM L-homoarginine, choroid plexus
  inhibition of [3H]-arginine distribution: 99.8%
[1]; 20 mM L-homoarginine, hypothalamus, did not attain statistical significance
  reduced uptake of [3H]-arginine: 98.0%
[1]; 20 mM L-homoarginine, pituitary gland
  inhibition of [3H]-arginine distribution: 97.6%
[1]; L-homoarginine, CSF, failed to attain statistical significance (n=3)
  decrease in [3H]-arginine distribution: 88.4%
[2]; 20 mM L-homoarginine, all brain regions (up to)
  inhibition of [3H]-ADMA uptake: up to 99.2%
[2]; CSF, BCH 4 mM, α-methyl-D,L-tryptophan 500 μM, L-phenylalanine 200 μM, L-leucine 5 mM, harmaline 2 mM
  RBrain of [3H]-ADMA in presence of inhibitor: 2.45±0.52 ml.100g^-1
[2]; [3]
  RBrain of [3H]-ADMA in presence of inhibitor: 0.18±0.13 ml.100g^-1
  % inhibition of [3H]-ADMA uptake: 99.2%
[2]; cerebellum, BCH 4 mM, α-methyl-D,L-tryptophan 500 μM, L-phenylalanine 200 μM, L-leucine 5 mM, harmaline 2 mM
  RBrain of [3H]-ADMA in presence of inhibitor: 0.37±0.19 ml.100g^-1
[2]; cerebellum
  % inhibition of [3H]-ADMA uptake: 97.9%
[2]; choroid plexus, BCH 4 mM, α-methyl-D,L-tryptophan 500 μM, L-phenylalanine 200 μM, L-leucine 5 mM, harmaline 2 mM
  RBrain of [3H]-ADMA in presence of inhibitor: 30.73±22.20 ml.100g^-1
[2]; [4]
  % inhibition of [3H]-ADMA uptake: 88.2%
[2]; [5]
  RBrain of [3H]-ADMA in presence of inhibitor: 1.06±1.02 ml.100g^-1
  % inhibition of [3H]-ADMA uptake: 95.7%
[2]; [6]
  RBrain of [3H]-ADMA in presence of inhibitor: 0.20±0.13 ml.100g^-1
  % inhibition of [3H]-ADMA uptake: 99.1%
[2]; homogenate, BCH 4 mM, α-methyl-D,L-tryptophan 500 μM, L-phenylalanine 200 μM, L-leucine 5 mM, harmaline 2 mM
  RBrain of [3H]-ADMA in presence of inhibitor: 3.74±3.52 ml.100g^-1
[2]; [7]
  RBrain of [3H]-ADMA in presence of inhibitor: 1.54±1.12 ml.100g^-1
  % inhibition of [3H]-ADMA uptake: 94.9%
[2]; [8]
  RBrain of [3H]-ADMA in presence of inhibitor: 0.49±0.40 ml.100g^-1
  % inhibition of [3H]-ADMA uptake: 97.8%
[2]; pellet, BCH 4 mM, α-methyl-D,L-tryptophan 500 μM, L-phenylalanine 200 μM, L-leucine 5 mM, harmaline 2 mM
  RBrain of [3H]-ADMA in presence of inhibitor: 2.32±1.65 ml.100g^-1
[2]; [9]
  RBrain of [3H]-ADMA in presence of inhibitor: 12.43±6.87 ml.100g^-1
  % inhibition of [3H]-ADMA uptake: 93.6%
[2]; pituitary gland, BCH 4 mM, α-methyl-D,L-tryptophan 500 μM, L-phenylalanine 200 μM, L-leucine 5 mM, harmaline 2 mM
  RBrain of [3H]-ADMA in presence of inhibitor: 8.57±3.99 ml.100g^-1
[2]; [10]
  % inhibition of [3H]-ADMA uptake: 95.3%
[2]; pons, BCH 4 mM, α-methyl-D,L-tryptophan 500 μM, L-phenylalanine 200 μM, L-leucine 5 mM, harmaline 2 mM
  RBrain of [3H]-ADMA in presence of inhibitor: 2.36±1.06 ml.100g^-1
[2]; pons
  % inhibition of [3H]-ADMA uptake: 90.4%
[2]; supernatant (brain parenchyma)
  % inhibition of [3H]-ADMA uptake: 65.8%
[2]; supernatant, BCH 4 mM, α-methyl-D,L-tryptophan 500 μM, L-phenylalanine 200 μM, L-leucine 5 mM, harmaline 2 mM
  RBrain of [3H]-ADMA in presence of inhibitor: 3.43±1.95 ml.100g^-1
[2]; [11]
  RBrain of [3H]-ADMA in presence of inhibitor: 1.81±0.71 ml.100g^-1
  % inhibition of [3H]-ADMA uptake: 91.4%
[2]; whole brain homogenate, L-phenylalanine 200 μM, L-leucine 5 mM
  % inhibition of [3H]-ADMA uptake: 78.9%

## NC1(C(=O)O)CC2CCC1C2 (stereo not drawn) [BCH, 2-amino-endo-bicyclo[2.2.1]heptane-2-carboxylic acid, reference compound]
[1]; [12]
  effect on [3H]-arginine distribution: no statistically significant effect
[1]; [13]
  effect on [3H]-arginine distribution: no significant effect
[1]
  effect on [3H]-arginine uptake: did not significantly affect
[2]; [14]
  inhibition of [3H]-ADMA uptake: up to 50.0%
[2]
  effect on [3H]-ADMA uptake: did not significantly affect
[2]; [3]
  % inhibition of [3H]-ADMA uptake: 37.5%
[2]; [4]
  % inhibition of [3H]-ADMA uptake: 50.0%
[2]; [6]
  % inhibition of [3H]-ADMA uptake: 36.6%
[2]; [7]
  % inhibition of [3H]-ADMA uptake: 36.8%
[2]; [8]
  % inhibition of [3H]-ADMA uptake: 34.2%
[2]; [9]
  % inhibition of [3H]-ADMA uptake: 65.6%
[2]; [10]
  % inhibition of [3H]-ADMA uptake: 61.5%

## CC(N)(Cc1c[nH]c2ccccc12)C(=O)O (racemic) [α-methyl-D,L-tryptophan, reference compound]
[1]; [12]
  effect on [3H]-arginine distribution: no statistically significant effect
[1]; [13]
  effect on [3H]-arginine distribution: no significant effect
[1]
  effect on [3H]-arginine uptake: did not significantly affect
[2]; [14]
  inhibition of [3H]-ADMA uptake: up to 50.0%
[2]
  effect on [3H]-ADMA uptake: did not significantly affect
[2]; [3]
  % inhibition of [3H]-ADMA uptake: 49.1%
[2]; [5]
  % inhibition of [3H]-ADMA uptake: 48.0%
[2]; [8]
  % inhibition of [3H]-ADMA uptake: 45.5%
[2]; [9]
  % inhibition of [3H]-ADMA uptake: 80.6%
